Measured values reported in the supplement of paper PMC10307832.

What was measured:
Test in all cases: relative viability (nuclei count vs DMSO), 5 days (fraction); higher = more cells survive
A-427 = tested on: A-427
Method in brief: (§1)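 Dosing by pin tool came one day after lung cancer cell lines were seeded in 1536-well plates, using either one drug or a fixed anchor-drug dose plus five library-drug doses (not always all listed) in √10 steps. After 5 days, nuclei were counted on 4× images. Relative viability is treated-well nuclei count divided by vehicle-well nuclei count, and values are medians of duplicate plates.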

COR-L23 = tested on: COR-L23
Method in brief: as §1

ChaGo-K-1 = tested on: ChaGo-K-1
Method in brief: as §1

EMC-BAC-2 = tested on: EMC-BAC-2
Method in brief: as §1

HARA = tested on: HARA
Method in brief: as §1

HCC-15 = tested on: HCC-15
Method in brief: as §1

HCC-366 = tested on: HCC-366
Method in brief: as §1

HCC-78 = tested on: HCC-78
Method in brief: as §1

LC-2-ad = tested on: LC-2-ad
Method in brief: as §1

LK-2 = tested on: LK-2
Method in brief: as §1

NCI-H1650 = tested on: NCI-H1650
Method in brief: as §1

NCI-H1734 = tested on: NCI-H1734
Method in brief: as §1

NCI-H1793 = tested on: NCI-H1793
Method in brief: as §1

NCI-H1944 = tested on: NCI-H1944
Method in brief: as §1

NCI-H1993 = tested on: NCI-H1993
Method in brief: as §1

NCI-H2009 = tested on: NCI-H2009
Method in brief: as §1

NCI-H2023 = tested on: NCI-H2023
Method in brief: as §1

NCI-H2228 = tested on: NCI-H2228
Method in brief: as §1

NCI-H23 = tested on: NCI-H23
Method in brief: as §1

NCI-H2405 = tested on: NCI-H2405
Method in brief: as §1

NCI-H838 = tested on: NCI-H838
Method in brief: as §1

SK-LU-1 = tested on: SK-LU-1
Method in brief: as §1

UMC-11 = tested on: UMC-11
Method in brief: as §1

## Clc1ccc(Nc2nnc(Cc3ccncc3)c3ccccc23)cc1 [Vatalanib] + Nc1nc2[nH]cc(CCc3ccc(C(=O)N[C@@H](CCC(=O)O)C(=O)O)cc3)c2c(=O)[nH]1 [Pemetrexed] (partner 0.2 µM)
A-427; first compound 0.04 µM
  relative viability: 0.98
A-427; first compound 0.1265 µM
  relative viability: 0.957
A-427; first compound 0.4 µM
  relative viability: 0.993
A-427; first compound 4 µM
  relative viability: 0.947
COR-L23; first compound 0.04 µM
  relative viability: 0.204
COR-L23; first compound 0.1265 µM
  relative viability: 0.194
COR-L23; first compound 0.4 µM
  relative viability: 0.212
COR-L23; first compound 1.265 µM
  relative viability: 0.201
COR-L23; first compound 4 µM
  relative viability: 0.208
ChaGo-K-1; first compound 0.04 µM
  relative viability: 0.263
ChaGo-K-1; first compound 0.1265 µM
  relative viability: 0.294
ChaGo-K-1; first compound 0.4 µM
  relative viability: 0.265
ChaGo-K-1; first compound 1.265 µM
  relative viability: 0.258
ChaGo-K-1; first compound 4 µM
  relative viability: 0.26
EMC-BAC-2; first compound 0.04 µM
  relative viability: 0.452
EMC-BAC-2; first compound 0.1265 µM
  relative viability: 0.427
EMC-BAC-2; first compound 0.4 µM
  relative viability: 0.456
EMC-BAC-2; first compound 4 µM
  relative viability: 0.463
HARA; first compound 0.04 µM
  relative viability: 0.225
HARA; first compound 0.1265 µM
  relative viability: 0.265
HARA; first compound 0.4 µM
  relative viability: 0.252
HARA; first compound 1.265 µM
  relative viability: 0.232
HARA; first compound 4 µM
  relative viability: 0.256
HCC-15; first compound 0.04 µM
  relative viability: 0.234
HCC-15; first compound 0.1265 µM
  relative viability: 0.218
HCC-15; first compound 0.4 µM
  relative viability: 0.225
HCC-15; first compound 1.265 µM
  relative viability: 0.235
HCC-15; first compound 4 µM
  relative viability: 0.219
HCC-366; first compound 0.04 µM
  relative viability: 0.148
HCC-366; first compound 0.1265 µM
  relative viability: 0.133
HCC-366; first compound 0.4 µM
  relative viability: 0.185
HCC-366; first compound 1.265 µM
  relative viability: 0.162
HCC-366; first compound 4 µM
  relative viability: 0.148
HCC-78; first compound 0.04 µM
  relative viability: 0.924
HCC-78; first compound 0.1265 µM
  relative viability: 0.981
HCC-78; first compound 0.4 µM
  relative viability: 0.881
HCC-78; first compound 1.265 µM
  relative viability: 0.947
HCC-78; first compound 4 µM
  relative viability: 0.906
LC-2-ad; first compound 0.04 µM
  relative viability: 0.267
LC-2-ad; first compound 0.1265 µM
  relative viability: 0.27
LC-2-ad; first compound 0.4 µM
  relative viability: 0.275
LC-2-ad; first compound 1.265 µM
  relative viability: 0.267
LC-2-ad; first compound 4 µM
  relative viability: 0.288
LK-2; first compound 0.04 µM
  relative viability: 0.241
LK-2; first compound 0.1265 µM
  relative viability: 0.252
LK-2; first compound 0.4 µM
  relative viability: 0.319
LK-2; first compound 1.265 µM
  relative viability: 0.235
LK-2; first compound 4 µM
  relative viability: 0.207
NCI-H1650; first compound 0.04 µM
  relative viability: 0.359
NCI-H1650; first compound 0.1265 µM
  relative viability: 0.305
NCI-H1650; first compound 0.4 µM
  relative viability: 0.323
NCI-H1650; first compound 1.265 µM
  relative viability: 0.388
NCI-H1650; first compound 4 µM
  relative viability: 0.388
NCI-H1734; first compound 0.04 µM
  relative viability: 0.401
NCI-H1734; first compound 0.1265 µM
  relative viability: 0.42
NCI-H1734; first compound 0.4 µM
  relative viability: 0.414
NCI-H1734; first compound 1.265 µM
  relative viability: 0.427
NCI-H1734; first compound 4 µM
  relative viability: 0.379
NCI-H1793; first compound 0.04 µM
  relative viability: 0.789
NCI-H1793; first compound 0.1265 µM
  relative viability: 0.817
NCI-H1793; first compound 0.4 µM
  relative viability: 1.06
NCI-H1793; first compound 1.265 µM
  relative viability: 0.747
NCI-H1793; first compound 4 µM
  relative viability: 0.714
NCI-H1944; first compound 0.04 µM
  relative viability: 0.544
NCI-H1944; first compound 0.1265 µM
  relative viability: 0.669
NCI-H1944; first compound 0.4 µM
  relative viability: 0.63
NCI-H1944; first compound 1.265 µM
  relative viability: 0.583
NCI-H1944; first compound 4 µM
  relative viability: 0.558
NCI-H1993; first compound 0.04 µM
  relative viability: 0.581
NCI-H1993; first compound 0.1265 µM
  relative viability: 0.644
NCI-H1993; first compound 0.4 µM
  relative viability: 0.619
NCI-H1993; first compound 1.265 µM
  relative viability: 0.501
NCI-H1993; first compound 4 µM
  relative viability: 0.619
NCI-H2009; first compound 0.04 µM
  relative viability: 0.975
NCI-H2009; first compound 0.1265 µM
  relative viability: 0.971
NCI-H2009; first compound 0.4 µM
  relative viability: 1.09
NCI-H2009; first compound 1.265 µM
  relative viability: 1.01
NCI-H2009; first compound 4 µM
  relative viability: 0.974
NCI-H2023; first compound 0.04 µM
  relative viability: 0.263
NCI-H2023; first compound 0.1265 µM
  relative viability: 0.21
NCI-H2023; first compound 0.4 µM
  relative viability: 0.215
NCI-H2023; first compound 1.265 µM
  relative viability: 0.242
NCI-H2023; first compound 4 µM
  relative viability: 0.202
NCI-H2228; first compound 0.04 µM
  relative viability: 0.352
NCI-H2228; first compound 0.1265 µM
  relative viability: 0.304
NCI-H2228; first compound 0.4 µM
  relative viability: 0.314
NCI-H2228; first compound 1.265 µM
  relative viability: 0.376
NCI-H2228; first compound 4 µM
  relative viability: 0.374
NCI-H23; first compound 0.04 µM
  relative viability: 0.579
NCI-H23; first compound 0.1265 µM
  relative viability: 0.654
NCI-H23; first compound 0.4 µM
  relative viability: 0.728
NCI-H23; first compound 1.265 µM
  relative viability: 0.59
NCI-H23; first compound 4 µM
  relative viability: 0.544
NCI-H2405; first compound 0.04 µM
  relative viability: 1.04
NCI-H2405; first compound 0.1265 µM
  relative viability: 1.04
NCI-H2405; first compound 0.4 µM
  relative viability: 0.981
NCI-H2405; first compound 4 µM
  relative viability: 1.01
NCI-H838; first compound 0.04 µM
  relative viability: 0.243
NCI-H838; first compound 0.1265 µM
  relative viability: 0.226
NCI-H838; first compound 0.4 µM
  relative viability: 0.261
NCI-H838; first compound 1.265 µM
  relative viability: 0.239
NCI-H838; first compound 4 µM
  relative viability: 0.239
SK-LU-1; first compound 0.04 µM
  relative viability: 0.966
SK-LU-1; first compound 0.1265 µM
  relative viability: 0.881
SK-LU-1; first compound 0.4 µM
  relative viability: 1.14
SK-LU-1; first compound 1.265 µM
  relative viability: 0.901
SK-LU-1; first compound 4 µM
  relative viability: 0.928
UMC-11; first compound 0.04 µM
  relative viability: 0.849
UMC-11; first compound 0.1265 µM
  relative viability: 0.808
UMC-11; first compound 0.4 µM
  relative viability: 0.844
UMC-11; first compound 1.265 µM
  relative viability: 0.791
UMC-11; first compound 4 µM
  relative viability: 0.794
